Source: US6139862A, “Pharmaceutical dipeptide compositions and methods of use thereof” (priority 1998, dated 2000)

Settings: in vivo
Description: Due to its simple nature, the dipeptide is rather inexpensive to manufacture.

In the case of `CC[C@H](C)[C@H](N)C(=O)N[C@@H](Cc1c[nH]c2ccccc12)C(=O)O` [Ile-Trp, L-Ile-L-Trp], the “significant side effects from the use of the dipeptide” value is reported as “not found any significant side effects”.
